In ChEMBL document CHEMBL3991601, “The target landscape of clinical kinase drugs” (Science, 2017):
Calls of active or inactive are those of the source. Cut-off read from the data, not from the text of the source, for most assays here: actives have a measured Kd and inactives only a lower limit.

Experiments:
[1] = molecular target: T1, Signal recognition particle receptor subunit alpha (Homo sapiens, UniProt P08240)
T1 sequence (P08240 whole entry): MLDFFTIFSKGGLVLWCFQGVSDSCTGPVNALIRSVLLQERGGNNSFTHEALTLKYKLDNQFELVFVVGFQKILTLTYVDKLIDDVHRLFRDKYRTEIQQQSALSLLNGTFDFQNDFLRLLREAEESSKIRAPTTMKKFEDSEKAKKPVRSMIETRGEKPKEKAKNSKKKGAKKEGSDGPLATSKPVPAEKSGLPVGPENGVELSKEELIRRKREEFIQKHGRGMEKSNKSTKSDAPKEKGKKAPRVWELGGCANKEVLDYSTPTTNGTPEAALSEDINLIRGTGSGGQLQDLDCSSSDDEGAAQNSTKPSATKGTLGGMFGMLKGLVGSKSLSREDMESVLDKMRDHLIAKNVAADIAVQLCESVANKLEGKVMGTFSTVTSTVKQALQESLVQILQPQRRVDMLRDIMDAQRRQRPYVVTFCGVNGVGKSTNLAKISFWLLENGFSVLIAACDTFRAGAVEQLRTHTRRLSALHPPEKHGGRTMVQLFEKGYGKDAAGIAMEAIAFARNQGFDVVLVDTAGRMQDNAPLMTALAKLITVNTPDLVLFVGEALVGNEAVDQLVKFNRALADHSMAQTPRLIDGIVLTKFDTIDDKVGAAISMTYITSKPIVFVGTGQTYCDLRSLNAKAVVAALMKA

[2] = molecular target: T2, Serine/threonine-protein kinase LATS1 (Homo sapiens, UniProt O95835)
T2 sequence (O95835 whole entry): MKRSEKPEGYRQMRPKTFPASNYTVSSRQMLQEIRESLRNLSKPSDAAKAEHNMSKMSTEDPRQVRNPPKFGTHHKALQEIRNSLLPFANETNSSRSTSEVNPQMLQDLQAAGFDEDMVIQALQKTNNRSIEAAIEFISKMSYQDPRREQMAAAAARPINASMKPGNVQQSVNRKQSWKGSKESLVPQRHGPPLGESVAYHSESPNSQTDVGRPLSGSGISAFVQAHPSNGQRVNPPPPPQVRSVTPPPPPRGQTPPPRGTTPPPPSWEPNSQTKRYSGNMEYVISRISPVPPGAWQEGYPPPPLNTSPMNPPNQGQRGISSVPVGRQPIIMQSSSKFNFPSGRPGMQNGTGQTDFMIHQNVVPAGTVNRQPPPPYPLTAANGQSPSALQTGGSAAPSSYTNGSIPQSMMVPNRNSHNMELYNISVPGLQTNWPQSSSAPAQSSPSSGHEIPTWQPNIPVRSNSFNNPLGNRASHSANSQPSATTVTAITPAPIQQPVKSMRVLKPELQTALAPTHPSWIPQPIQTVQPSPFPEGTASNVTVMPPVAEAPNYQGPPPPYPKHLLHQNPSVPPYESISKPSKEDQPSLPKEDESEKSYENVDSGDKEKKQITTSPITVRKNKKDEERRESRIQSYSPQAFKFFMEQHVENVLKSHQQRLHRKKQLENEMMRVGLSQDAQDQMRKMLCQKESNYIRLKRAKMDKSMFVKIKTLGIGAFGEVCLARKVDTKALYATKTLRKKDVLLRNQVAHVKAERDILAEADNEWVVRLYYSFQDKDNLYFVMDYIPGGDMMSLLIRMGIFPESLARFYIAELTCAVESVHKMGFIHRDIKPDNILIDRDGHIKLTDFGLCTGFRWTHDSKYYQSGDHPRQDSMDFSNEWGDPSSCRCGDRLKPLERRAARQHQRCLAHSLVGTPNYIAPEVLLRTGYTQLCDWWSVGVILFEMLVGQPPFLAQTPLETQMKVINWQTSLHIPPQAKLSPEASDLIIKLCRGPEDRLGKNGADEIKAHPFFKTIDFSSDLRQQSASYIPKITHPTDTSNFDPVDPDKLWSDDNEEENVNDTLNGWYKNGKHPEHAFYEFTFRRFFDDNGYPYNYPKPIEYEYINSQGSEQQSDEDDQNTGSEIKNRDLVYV

[3] = molecular target: Tyrosine-protein kinase FRK (Homo sapiens, UniProt P42685)
Ephrin type-B receptor 2 = molecular target: T3, Ephrin type-B receptor 2 (Homo sapiens, UniProt P29323)
T3 sequence (P29323 whole entry): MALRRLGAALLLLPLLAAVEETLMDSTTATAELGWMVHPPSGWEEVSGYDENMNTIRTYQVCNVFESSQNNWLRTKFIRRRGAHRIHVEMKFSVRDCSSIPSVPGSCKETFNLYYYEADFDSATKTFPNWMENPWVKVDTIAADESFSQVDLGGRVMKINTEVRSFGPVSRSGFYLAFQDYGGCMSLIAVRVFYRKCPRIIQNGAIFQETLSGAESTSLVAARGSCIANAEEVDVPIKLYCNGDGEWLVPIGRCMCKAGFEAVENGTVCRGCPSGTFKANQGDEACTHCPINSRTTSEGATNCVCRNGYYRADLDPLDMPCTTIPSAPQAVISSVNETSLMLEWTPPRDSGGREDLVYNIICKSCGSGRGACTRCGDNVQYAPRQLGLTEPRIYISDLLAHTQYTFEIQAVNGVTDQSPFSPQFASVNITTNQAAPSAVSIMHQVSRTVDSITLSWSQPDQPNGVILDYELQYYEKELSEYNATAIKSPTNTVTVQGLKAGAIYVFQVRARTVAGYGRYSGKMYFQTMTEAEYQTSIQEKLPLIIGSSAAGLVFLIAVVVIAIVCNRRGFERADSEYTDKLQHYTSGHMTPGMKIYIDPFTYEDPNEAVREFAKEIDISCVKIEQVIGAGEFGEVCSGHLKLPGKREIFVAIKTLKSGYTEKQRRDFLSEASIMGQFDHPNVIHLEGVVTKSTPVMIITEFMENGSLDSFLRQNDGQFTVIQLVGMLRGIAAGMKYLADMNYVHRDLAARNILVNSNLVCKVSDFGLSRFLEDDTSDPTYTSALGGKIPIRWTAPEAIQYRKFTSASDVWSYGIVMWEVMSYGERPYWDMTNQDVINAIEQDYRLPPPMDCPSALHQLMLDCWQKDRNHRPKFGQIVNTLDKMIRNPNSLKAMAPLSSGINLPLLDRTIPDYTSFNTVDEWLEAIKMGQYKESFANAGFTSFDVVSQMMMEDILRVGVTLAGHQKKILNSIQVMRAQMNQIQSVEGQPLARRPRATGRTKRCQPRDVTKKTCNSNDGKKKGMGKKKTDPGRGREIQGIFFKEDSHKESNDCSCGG

[4] = molecular target: Mitogen-activated protein kinase kinase kinase 20 (Homo sapiens, UniProt Q9NYL2)
[5] = molecular target: GTP-binding nuclear protein Ran (Homo sapiens, UniProt P62826)
[6] = molecular target: Protein kinase C alpha type (Homo sapiens, UniProt P17252)
Activin receptor type-2B = Activin receptor type-2B (Homo sapiens, UniProt Q13705)
Note: in the data inactive means no Kd found up to 30 µM.

Tyrosine-protein kinase FRK, sequence (P42685 whole entry): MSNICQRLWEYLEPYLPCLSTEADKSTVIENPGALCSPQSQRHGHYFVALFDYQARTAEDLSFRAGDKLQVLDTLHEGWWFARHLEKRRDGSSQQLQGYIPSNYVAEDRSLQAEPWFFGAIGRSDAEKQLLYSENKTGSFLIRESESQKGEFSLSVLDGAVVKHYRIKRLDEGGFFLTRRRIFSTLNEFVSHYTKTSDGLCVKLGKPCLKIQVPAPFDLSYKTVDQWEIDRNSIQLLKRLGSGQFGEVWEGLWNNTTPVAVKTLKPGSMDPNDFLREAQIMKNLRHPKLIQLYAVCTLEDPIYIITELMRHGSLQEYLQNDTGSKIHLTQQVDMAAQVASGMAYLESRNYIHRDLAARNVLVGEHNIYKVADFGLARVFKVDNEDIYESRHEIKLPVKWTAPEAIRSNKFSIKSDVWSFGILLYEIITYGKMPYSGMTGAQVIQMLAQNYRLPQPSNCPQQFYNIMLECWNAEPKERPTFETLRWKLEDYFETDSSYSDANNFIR
Mitogen-activated protein kinase kinase kinase 20, sequence (Q9NYL2 whole entry): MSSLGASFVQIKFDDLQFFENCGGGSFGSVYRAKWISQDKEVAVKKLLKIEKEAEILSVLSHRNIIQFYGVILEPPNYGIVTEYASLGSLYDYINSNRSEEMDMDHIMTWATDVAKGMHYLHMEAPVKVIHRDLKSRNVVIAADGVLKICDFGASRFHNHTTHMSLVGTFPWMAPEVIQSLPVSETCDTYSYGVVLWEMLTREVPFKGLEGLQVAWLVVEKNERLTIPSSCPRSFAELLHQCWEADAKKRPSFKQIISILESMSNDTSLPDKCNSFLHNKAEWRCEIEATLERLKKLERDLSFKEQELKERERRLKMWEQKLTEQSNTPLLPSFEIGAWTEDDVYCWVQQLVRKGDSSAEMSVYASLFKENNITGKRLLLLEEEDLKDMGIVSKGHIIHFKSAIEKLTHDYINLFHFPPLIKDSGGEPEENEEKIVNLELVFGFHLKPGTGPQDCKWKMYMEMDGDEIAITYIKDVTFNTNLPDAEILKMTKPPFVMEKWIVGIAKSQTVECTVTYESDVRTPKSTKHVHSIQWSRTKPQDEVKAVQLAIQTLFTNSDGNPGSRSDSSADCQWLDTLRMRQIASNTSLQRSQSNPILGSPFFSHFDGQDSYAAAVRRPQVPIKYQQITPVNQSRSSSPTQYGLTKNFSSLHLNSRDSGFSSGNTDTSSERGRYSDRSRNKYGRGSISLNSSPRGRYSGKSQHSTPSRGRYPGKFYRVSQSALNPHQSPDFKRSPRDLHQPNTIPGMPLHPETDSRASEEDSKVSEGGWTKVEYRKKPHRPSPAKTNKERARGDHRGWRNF
Activin receptor type-2B, sequence (Q13705 whole entry): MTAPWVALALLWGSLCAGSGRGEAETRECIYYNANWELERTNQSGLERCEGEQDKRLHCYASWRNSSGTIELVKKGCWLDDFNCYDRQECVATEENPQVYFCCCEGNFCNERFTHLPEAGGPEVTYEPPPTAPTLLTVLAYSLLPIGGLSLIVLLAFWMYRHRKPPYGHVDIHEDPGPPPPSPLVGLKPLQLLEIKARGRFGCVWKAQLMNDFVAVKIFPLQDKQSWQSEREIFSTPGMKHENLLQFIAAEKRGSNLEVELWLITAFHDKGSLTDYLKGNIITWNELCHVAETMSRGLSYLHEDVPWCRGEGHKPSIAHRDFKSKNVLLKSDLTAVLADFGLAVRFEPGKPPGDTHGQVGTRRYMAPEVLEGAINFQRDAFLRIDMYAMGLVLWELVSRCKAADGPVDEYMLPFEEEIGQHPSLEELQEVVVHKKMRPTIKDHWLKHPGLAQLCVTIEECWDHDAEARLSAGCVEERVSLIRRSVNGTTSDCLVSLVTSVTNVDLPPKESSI

Compound | Kd [1] | Kd [2] | Kd [3] | Kd (Ephrin type-B receptor 2) | Kd [4] | Kd [5] | Kd [6] | Kd (Activin receptor type-2B)
NC[C@@](O)(c1ccc(Cl)cc1)c1ccc(-c2cn[nH]c2)cc1 [AT-13148] | > 30 µM (inactive) | 0.027 µM (active) | > 30 µM (inactive) | > 30 µM (inactive) | > 30 µM (inactive) | > 30 µM (inactive) | > 30 µM (inactive) | > 30 µM (inactive)
COc1cc2ncnc(Nc3ccc(O)cc3)c2cc1OC [WHI-P131] | > 30 µM (inactive) | > 30 µM (inactive) | > 30 µM (inactive) | > 30 µM (inactive) | > 30 µM (inactive) | > 30 µM (inactive) | > 30 µM (inactive) | > 30 µM (inactive)
Cn1cc(-c2[nH]c3cc(NC(=O)[C@H](N)C4CCCCC4)cc4c3c2C=NNC4=O)cn1 | > 30 µM (inactive) | 0.363 µM (active) | > 30 µM (inactive) | > 30 µM (inactive) | > 30 µM (inactive) | > 30 µM (inactive) | > 30 µM (inactive) | > 30 µM (inactive)
C=CC(=O)Nc1cc(Nc2nccc(-c3cn(C)c4ccccc34)n2)c(OC)cc1N(C)CCN(C)C [OSIMERTINIB] | > 30 µM (inactive) | > 30 µM (inactive) | > 30 µM (inactive) | > 30 µM (inactive) | > 30 µM (inactive) | > 30 µM (inactive) | > 30 µM (inactive) | > 30 µM (inactive)
COc1cccc2cc(-c3nc([C@H]4CC[C@H](C(=O)O)CC4)n4ncnc(N)c34)[nH]c12 [OSI-027] | > 30 µM (inactive) | > 30 µM (inactive) | > 30 µM (inactive) | > 30 µM (inactive) | > 30 µM (inactive) | > 30 µM (inactive) | > 30 µM (inactive) | > 30 µM (inactive)
CNC(=O)c1ccc(Nc2ncc(C(F)(F)F)c(NCc3nccnc3N(C)S(C)(=O)=O)n2)cc1 [DEFACTINIB] | > 30 µM (inactive) | 9.05 µM (active) | > 30 µM (inactive) | > 30 µM (inactive) | > 30 µM (inactive) | > 30 µM (inactive) | > 30 µM (inactive) | > 30 µM (inactive)
Cc1cc(C(=O)Nc2cc(Oc3ccc4nc(NC(=O)C5CC5)cn4n3)ccc2C)n(C)n1 [TAK-593] | > 30 µM (inactive) | > 30 µM (inactive) | > 30 µM (inactive) | > 30 µM (inactive) | > 30 µM (inactive) | > 30 µM (inactive) | > 30 µM (inactive) | > 30 µM (inactive)

Now from value to molecule:

Kd [1] | Kd [2] | Kd [3] | Kd (Ephrin type-B receptor 2) | Kd [4] | Kd [5] | Kd [6] | Kd (Activin receptor type-2B) | Compound
> 30 µM (inactive) | > 30 µM (inactive) | > 30 µM (inactive) | > 30 µM (inactive) | > 30 µM (inactive) | > 30 µM (inactive) | > 30 µM (inactive) | > 30 µM (inactive) | COc1cc2ncnc3c2cc1OCCCCCN(C)Cc1ccc(Br)cc1N3 [JNJ-26483327]
> 30 µM (inactive) | > 30 µM (inactive) | 0.56 µM (active) | > 30 µM (inactive) | > 30 µM (inactive) | > 30 µM (inactive) | > 30 µM (inactive) | > 30 µM (inactive) | COc1cc2nccc(Oc3ccc(NC(=O)C4(C(=O)Nc5ccc(F)cc5)CC4)cc3)c2cc1OC [CABOZANTINIB]
> 30 µM (inactive) | > 30 µM (inactive) | > 30 µM (inactive) | > 30 µM (inactive) | > 30 µM (inactive) | > 30 µM (inactive) | > 30 µM (inactive) | > 30 µM (inactive) | Cn1c(=O)c(F)c(Nc2ccc(I)cc2F)c2c(=O)n(C[C@@H](O)CO)cnc21 [TAK-733]
> 30 µM (inactive) | > 30 µM (inactive) | 0.33 µM (active) | > 30 µM (inactive) | > 30 µM (inactive) | > 30 µM (inactive) | > 30 µM (inactive) | > 30 µM (inactive) | CCOc1ccn(-c2ccc(F)cc2)c(=O)c1C(=O)Nc1ccc(Oc2ccnc(N)c2Cl)c(F)c1 [BMS-777607]
> 30 µM (inactive) | > 30 µM (inactive) | > 30 µM (inactive) | > 30 µM (inactive) | > 30 µM (inactive) | > 30 µM (inactive) | > 30 µM (inactive) | > 30 µM (inactive) | Cc1ccc(C(=O)Nc2ccc(Oc3cc4cnn(C)c4cc3-c3cn[nH]c3)c(F)c2)c(=O)n1-c1ccc(F)cc1 [MERESTINIB]
> 30 µM (inactive) | > 30 µM (inactive) | > 30 µM (inactive) | 1.3 µM (active) | > 30 µM (inactive) | > 30 µM (inactive) | > 30 µM (inactive) | 0.419 µM | Cc1cc(-c2cc(OC(=O)c3ccccc3)ccc2Cl)cc2nnc(Nc3ccc(OCCN4CCCC4)cc3)nc12 [TG100-801]
> 30 µM (inactive) | > 30 µM (inactive) | > 30 µM (inactive) | > 30 µM (inactive) | > 30 µM (inactive) | > 30 µM (inactive) | > 30 µM (inactive) | > 30 µM (inactive) | c1cc(OCCN2CCCCC2)cc(-c2n[nH]c3ccc(-c4nc[nH]n4)cc23)c1 [CC-401]
